From US8841274B2, “Protein arginine N-methyltransferase-5 method of cancer treatment” (priority 2009, dated 2014)

Experiments:
Assay type in all cases: cell-based
[1] = test system: p73-luciferase or cyclinE-luciferase; experiment: Reporter assay with E2F-responsive promoters; details: U2OS cells, PRMT5 vs control siRNA, 48 h
Method: To further explore the role of arginine methylation in the transcription properties of E2F-1, wild-type E2F-1 was compared with the KK and KKK mutants in a reporter-based transfection assay, using E2F-responsive promoters derived from E2F target genes. The assay was performed under conditions in which each mutant protein was expressed at an equivalent level to wild-type E2F-1 (FIG. 4aii and bii), thus ruling out any difference in activity that could be attributed to protein levels. […] FIGS. 4a and b show the transcription properties of wild-type E2F-1, KK and KKK mutants. U2OS cells were transfected with expression vectors encoding WT or mutant E2F-1 protein, together with p73-luciferase (A) or cyclinE-luciferase (B) for 48 h as indicated, and pCMV-βgal to monitor transfection efficiency. Relative luciferase activity (luciferase/βgal) is shown together with expression level of ectopic proteins; n=3. […] PRMT5 (P) or control (C) non-targeting siRNA was transfected into U2OS cells together with p73-luciferase (i) or cyclinE-luciferase (ii) for 48 h, together with pCMV-βgal to monitor transfection efficiency. Relative luciferase activity is shown together with expression level of the ectopic proteins.
Cells were transfected with expression vectors (1 μg) encoding WT or the mutant E2F-1 proteins as indicated with E2F responsive luciferase reporters, namely p73-luciferase or cyclinE-luciferase, together with pCMV-βgal to monitor transfection efficiency. Cells were harvested, lysed 48 h post-transfection and luciferase activity measured as previously described (Janson et al 2008).

HCT116 p53−/− = experiment: Apoptosis (sub-G1) by FACS in HCT116 p53−/− cells; details: siRNA 25 nM, 72 h, n=3
Method: (§1) PRMT5 (P) or control (C) non-targeting siRNA (25 nM) was transfected into HCT116 p53+/+ (i), HCT116 p53−/− (ii) or U2OS (iii) cells and the cells were harvested 72 h post-transfection and analysed by FACS. The graph represents the actual number of sub-G1 cells in the indicated conditions, and the immunoblot the level of PRMT5 and actin control; n=3.
(§2) Cells were transfected with the indicated expression vectors together with pBB14-GFP (for 48 h) to monitor transfection efficiency or siRNA (for 48 h or 72 h) with or without treatment of the DNA damage agent for the last 16 h. Then, cells were fixed and stained with propidium iodide and analyzed by Flow Cytometry.

PRMT5 [2] = experiment: PRMT5 depletion by siRNA in U2OS cells, E2F-1 and E2F target gene levels
Description: The depletion of PRMT5 co-incided with increased levels of E2F-1 protein (FIG. 3c), which is compatible with the increased level and stability of the KK and KKK mutants (FIG. 3b). […] Extracts were immunoblotted with anti-PRMT5 and E2F-1, and GAPDH levels served as a loading control.
Further, E2F-1 RNA was higher under conditions of PRMT5 depletion, contrasting with the control siRNA treatment. […] RNA was extracted from cells treated as described above, and RNA levels of E2F-1 examined. RNA levels of 18S and GAPDH served as controls. […] Extracts were immunoblotted with anti-PRMT5, E2F-1, p73, Chk2, Chk1 and Cdc2 as indicated. Levels of GAPDH served as the loading control.
FIGS. 6f and 6g address the role of one of the key E2F target genes in the PRMT5 dependent apoptosis, i.e. p73. […] PRMT5 (P) or control (C) siRNA was transfected into U2OS cells and cells harvested at 72 h post-transfection. Both RNA (i) and protein (ii) levels were measured, as indicated, for p73, 18S and GAPDH (i) and PRMT5, E2F-1, p73 and GAPDH (ii). […] This experiment supports activation of the E2F1 pathway leading to apoptosis upon PRMT5 knockdown, i.e. PRMT5 normally acts to suppress activation of the pathway.
Oligofectamine transfection reagent (Invitrogen) was used to transfect cells with siRNAs for 72 h. siRNA treatment of cells was carried out using siRNA non-targeting (Dharmacon) as control or PRMT5 (5′ […] (SEQ ID NO:1)). p73 smart pool siRNA was from Dharmacon. siRNA treatment was for 72 h at 50 nM.

SAOS2 = experiment: Apoptosis (sub-G1) by FACS in SAOS2 cells with ectopic E2F-1; details: SAOS2 with wild-type E2F-1 expression vector 1 μg, 72 h; n=3
Method: PRMT5 (P) or control (C) non-targeting siRNA was transfected into SAOS2 together with an expression vector encoding wild-type E2F-1 (1 μg) as indicated, harvested at 72 h and processed as described in (a); n=3. […] This is consistent with the idea that PRMT5 mediates its effects through E2F-1.
as §2

PRMT5 [3] = target: PRMT5 (Homo sapiens, UniProt O14744); experiment: Ubiquitination assay in U2OS cells after siRNA; set-up: The indicated GST proteins were incubated with U2OS cell lysate; endogenous in cells; host or cells: U2OS; details: PRMT5 vs control siRNA, MG132 20 nM 4 h
Method: U2OS cells were transfected with PRMT5 (P) or control (C) siRNA. After 24 h, cells were transfected with expression vectors encoding wild-type (WT) E2F-1 or the KKK mutant (2 μg) and His 6-ubiquitin (4 μg) as indicated. Cells were treated with MG132 ([…]) for 4 h before being collected. Cell lysates and Ni2+ pull-down eluates were analysed as described. Quantitation of ubiquitin signals was performed using ImageJ 1.43u, and the input protein levels are shown underneath.
Cells were transfected with pcDNA3.1a-ubiquitin (His-tagged) and treated as described. Briefly cells were harvested into 8 M urea, 0.1 M Na2HPO4/NaH2PO4, 0.01 M Tris-HCl, and pH 8.0. Cell lysate was incubated with nickel (Ni^2+-NTA)-agarose beads (Qiagen), 5 mM imidazole and 10 mM β-mercapthoethanol overnight at 4° C. The beads were collected and washed as described (Liu and Warbrick, 2006). Bound proteins were then eluted and assayed by immunoblotting.

U2OS cells = experiment: Apoptosis (sub-G1) by FACS in U2OS cells; details: n=3
Method: Whether arginine methylation influences E2F-1-dependent apoptosis was investigated by comparing the ability of wild-type E2F-1 to the KK and KKK mutants to induce cells with a sub-G1 DNA content (Stevens et al 2003). […] U2OS cells were transfected with expression vectors encoding wild-type E2F-1, KK and KKK as indicated for 48 h and analysed by FACS as described. The graph represents the relative change in sub-G1 populations compared to the empty vector control treatment; n=2.
(§3) The graph (i) represents the relative number of sub-G I cells (compared to the control treatment) in the indicated conditions; and (ii) the level of PRMT5 and E2F-1; n=3.
as §1
PRMT5 (P), E2F-1 (E) or control (C) non-targeting siRNA was transfected into U2OS cells and harvested 72 h post-transfection and analysed by FACS as described.
as §2

MEFs = experiment: Apoptosis by FACS in MEFs; details: MEFs (normal non-cancer cells), 72 h; n=3
Method: PRMT5 (P) or control (C) non-targeting siRNA was transfected into MEFs and cells harvested at 72 h post-transfection as indicated. Cell extracts were immunoblotted with anti-PRMT5 and anti-E2F-1. Actin levels served as the loading control.
MEFs were treated as described in 6c and thereafter analysed by FACS. In FIG. 6d the black bar represents the effect of C siRNA, and clear bar the effect of P siRNA; n=3.
as §2

HCT116 p53+/+ = experiment: Apoptosis (sub-G1) by FACS in HCT116 p53+/+ cells; details: siRNA 25 nM, 72 h, n=3
Method: as §1, §2

C33A cells = experiment: Apoptosis upon PRMT5 depletion in C33A cells; details: PRMT5 vs control siRNA
Method: as §3
Cleaved PARP is indicated by the arrow.
as §2

Chain of PRMT5 (Homo sapiens, UniProt O14744) (O14744 whole entry): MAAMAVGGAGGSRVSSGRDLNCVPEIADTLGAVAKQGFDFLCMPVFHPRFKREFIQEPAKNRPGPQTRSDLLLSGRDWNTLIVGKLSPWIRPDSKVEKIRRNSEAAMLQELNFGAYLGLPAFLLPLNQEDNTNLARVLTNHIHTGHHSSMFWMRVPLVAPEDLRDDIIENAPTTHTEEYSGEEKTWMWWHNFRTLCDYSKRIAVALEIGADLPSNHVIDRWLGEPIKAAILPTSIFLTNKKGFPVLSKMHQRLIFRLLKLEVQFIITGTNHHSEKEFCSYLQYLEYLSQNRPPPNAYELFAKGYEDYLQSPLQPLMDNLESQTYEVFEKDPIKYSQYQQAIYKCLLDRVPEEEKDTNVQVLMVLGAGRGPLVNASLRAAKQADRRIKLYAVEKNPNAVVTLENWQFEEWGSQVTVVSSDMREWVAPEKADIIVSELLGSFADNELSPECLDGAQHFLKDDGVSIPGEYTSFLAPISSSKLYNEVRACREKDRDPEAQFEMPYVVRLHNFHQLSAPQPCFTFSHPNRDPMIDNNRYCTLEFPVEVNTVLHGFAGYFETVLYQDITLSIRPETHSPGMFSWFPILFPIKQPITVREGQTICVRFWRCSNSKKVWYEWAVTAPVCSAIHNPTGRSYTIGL

5′ CCGCUAUUGCACCUUGGAA (SEQ ID NO:1) [PRMT5 siRNA]
activity of E2F-1 responsive promoters [1]: more active
apoptosis (% sub-G1 cells) (HCT116 p53−/−): induces apoptosis
E2F-1 protein levels (PRMT5 [2]; 72 h, with or without etoposide 10 μM): increases E2F-1 protein levels
protein levels of E2F target genes (p73, Chk1, Chk2, Cdc2) (PRMT5 [2]; 72 h, with or without etoposide or doxorubicin): induced
p73 RNA and protein levels (PRMT5 [2]; 72 h post-transfection): upregulated
E2F-1 RNA levels (PRMT5 [2]; contrasting with control siRNA): higher
apoptosis (SAOS2): enhanced levels of apoptosis
E2F-1 ubiquitination (PRMT5 [3]): affects the ubiquitination of E2F-1
apoptosis (sub-G1 cells) (U2OS cells; U2OS cells, 72 h post-transfection, with or without etoposide 10 μM 16 h): increased level of apoptosis
apoptosis (% sub-G1 cells) (U2OS cells; U2OS, siRNA 25 nM, 72 h): induces apoptosis
apoptosis (MEFs): no apoptosis
apoptosis (% sub-G1 cells) (HCT116 p53+/+): induces apoptosis
apoptosis (C33A cells): increased level of apoptosis
